Assay results reported in patent US8252958B2, “Use of guanabenz and its derivatives for making drugs for treating cystic fibrosis and diseases related to a protein addressing deficiency in the cells” (Centre National de la Recherche Scientifique (CNRS), priority 2006, dated 2012).

What was measured:
[1] = target: T1, delF508-CFTR (Homo sapiens, UniProt P13569, DEL508-508); assay: Competition experiments by the iodide efflux technique between guanabenz and the chaperone machinery of the ER; assay type: cell-based
T1 construct: The CF15 cells are human epithelial cells of nasal origin which express the ΔF508-CFTR gene; endogenous in cells; host or cells: CF15 human airway epithelial cells (F508del/F508del)
Method: The measurements of chloride ion transport in the cells were performed with the aid of the radioactive iodide efflux technique (Becq et al., 1999; Dormer et al., 2001). The tracer (^125I) is incorporated into the intracellular medium. Next, the quantity of radiotracer which leaves the cell is counted after the addition of various pharmacological agents. The iodide is used as chloride ion transport tracer. ^125I further has the advantage of having a short life compared with that of other markers such as […] (respective ½ life: […] and 300 000 years).
The cells are cultured on 24-well plates in a suitable medium. Two rinses with efflux medium (NaCl: 136.6 mM, KCl: 5.4 mM, KH2PO4: 0.3 mM, NaH2PO4: 0.3 mM, NaHCO3: 4.2 mM, CaCl2: 1.3 mM, MgCl2: 0.5 mM, MgSO4: 0.4 Mm, HEPES: 10 mM, D-glucose: 5.6 mM) are performed in order to remove the dead cells which anarchically release radioactivity. Next, the cells are incubated with 500 μl of load (1 μCi/ml of ^125INa) for 30 min for the CHO-WT cells or 1 h for the CF15 and Calu-3 cells. The iodide forms an equilibrium on either side of the cell membrane. The robot (MultiPROBE, Packard) carries out the following steps: the load medium is rinsed with efflux medium in order to remove the extracellular radioactivity. The supernatant is collected every minute in hemolysis tubes and the medium is replaced with an equivalent volume (500 μl). No drug is added to the samples collected for the first 3 minutes, they make it possible to obtain a stable baseline, characterizing the passive outflow of the I ions. […] At the end of the experiment, the cells are lysed by adding 500 μl of NaOH (0.1N)/0.1% SDS (30 min), thus the radioactivity remaining inside the cell can be determined. The radioactivity present in the hemolysis tubes is counted in counts per minute (cpm) using a gamma counter (Cobra II, Packard). […] In order to quantify the outflow of iodide due to the administration of the test molecule, the following relative flow is calculated, which makes it possible to dispense with the basal flow: relative speed (min^−1)=Rpic−Rbasal. […]

[2] = target: T1, delF508-CFTR; assay: Iodide efflux (radiotracer) after 2 h treatment of CF15 cells, forskolin activation; assay type: cell-based

T1 sequence (P13569 with tags, fused parts or gaps DEL508-508): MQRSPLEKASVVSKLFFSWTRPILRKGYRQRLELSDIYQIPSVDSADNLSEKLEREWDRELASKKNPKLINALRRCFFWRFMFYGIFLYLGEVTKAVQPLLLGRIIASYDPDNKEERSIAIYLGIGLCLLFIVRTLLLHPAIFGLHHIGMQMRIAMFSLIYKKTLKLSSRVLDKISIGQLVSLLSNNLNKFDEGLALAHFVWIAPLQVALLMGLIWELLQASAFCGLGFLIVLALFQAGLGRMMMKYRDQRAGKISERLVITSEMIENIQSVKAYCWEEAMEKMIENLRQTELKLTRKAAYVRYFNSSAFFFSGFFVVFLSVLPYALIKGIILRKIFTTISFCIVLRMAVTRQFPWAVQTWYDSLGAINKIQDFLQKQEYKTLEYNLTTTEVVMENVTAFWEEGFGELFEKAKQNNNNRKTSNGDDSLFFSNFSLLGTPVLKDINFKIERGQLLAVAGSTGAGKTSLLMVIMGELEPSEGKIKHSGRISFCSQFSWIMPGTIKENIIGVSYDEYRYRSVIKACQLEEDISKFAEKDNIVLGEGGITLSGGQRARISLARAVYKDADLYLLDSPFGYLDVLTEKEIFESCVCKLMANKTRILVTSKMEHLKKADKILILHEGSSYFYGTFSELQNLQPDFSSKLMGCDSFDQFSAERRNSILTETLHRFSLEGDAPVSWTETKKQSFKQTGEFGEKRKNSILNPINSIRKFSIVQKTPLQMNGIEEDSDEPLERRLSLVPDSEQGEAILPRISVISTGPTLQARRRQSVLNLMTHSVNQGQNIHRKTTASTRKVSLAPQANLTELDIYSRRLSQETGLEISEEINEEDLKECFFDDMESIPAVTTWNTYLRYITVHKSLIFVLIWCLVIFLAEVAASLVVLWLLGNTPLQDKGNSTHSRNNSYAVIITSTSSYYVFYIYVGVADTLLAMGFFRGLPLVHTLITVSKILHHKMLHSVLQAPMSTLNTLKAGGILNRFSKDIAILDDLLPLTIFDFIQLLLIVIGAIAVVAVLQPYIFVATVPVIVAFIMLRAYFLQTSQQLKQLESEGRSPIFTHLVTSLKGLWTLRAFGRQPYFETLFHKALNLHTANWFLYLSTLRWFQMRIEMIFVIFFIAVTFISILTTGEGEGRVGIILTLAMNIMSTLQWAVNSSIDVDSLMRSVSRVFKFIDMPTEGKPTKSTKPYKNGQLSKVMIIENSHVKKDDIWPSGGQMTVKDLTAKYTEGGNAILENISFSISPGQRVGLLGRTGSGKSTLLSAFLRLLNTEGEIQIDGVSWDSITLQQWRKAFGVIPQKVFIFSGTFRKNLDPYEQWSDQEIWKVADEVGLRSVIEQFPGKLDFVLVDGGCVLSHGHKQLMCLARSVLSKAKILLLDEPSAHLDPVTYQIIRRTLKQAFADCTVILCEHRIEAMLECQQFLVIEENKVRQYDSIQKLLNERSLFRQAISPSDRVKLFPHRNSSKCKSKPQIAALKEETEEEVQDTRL

effect of guanabenz in the presence of Brefeldine-A (BFA) ([1]; BFA, inhibitor of vesicular ERGIC traffic): inhibition of the effect of guanabenz | effect of guanabenz in the presence of MG132 ([1]; MG132, proteasome inhibitor): No modulation of the effect of guanabenz | EC50 ([2]; CF15 cells, 2 h of treatment, iodide efflux, read-out: EC50 of readdressing of the protein F508del-CFTR): 40 µM
SMILES: N=C(N)N/N=C/c1c(Cl)cccc1Cl [guanabenz]
effect of guanabenz in the presence of swainsonine ([1]; swainsonine, mannosidase inhibitor): low potentiation of the effect of guanabenz | readdressing of the mutated protein F508del-CFTR to the membrane ([2]; CF15 cells (F508del/F508del) treated with guanabenz): allows readdressing of the mutated protein F508del-CFTR to the membrane
